Experimental data as given in patent US5993815A, “Methods and compositions for inhibiting the activation of thrombin-activatable fibrinolysis inhibitor (TAFI)” (University of Vermont, priority 1997, dated 1999).

Key:
Assay type in all cases: biochemical
[1] = molecular target: T1, thrombin in complex with thrombomodulin (activation of purified human TAFI) (Homo sapiens, UniProt P00734); assay: two-stage TAFI activation assay, chromogenic substrate hippuryl arginine; settings: FPA-CK 50 nmol/L present during incubation of TAFI with thrombin and thrombomodulin, 10 minutes at 22° C.
T1 construct: Prothrombin was purified as described previously and used to prepare thrombin; made in house
Experimental: In a 25-μL reaction volume, TAFI zymogen (0.8 μmol/L final concentration) is incubated with thrombomodulin (40 nmol/L final concentration), Ca^2+ (5.0 mmol/L final concentration), and thrombin (8.0 nmol/L final concentration) in the presence and absence of the putative peptide for 10 minutes at 22° C. Thrombin is then inhibited by the addition of the Phe-Pro-Arg chloromethyl ketone (FPA-CK 50 nmol/L final concentration). […] A negative control may be used by adding FPA-CK at the initiation of the reaction. In the negative control TAFI is not activated because the thrombin is inhibited from functioning. […] The time course of hippuric acid formation is measured by first correcting the volume in each of the reactions by the addition of a volume of buffer equal to that of the added putative peptide. […] The time course of hippuric acid formation at 22° C. is followed by monitoring absorbance at 254 nm and 0.5 minute intervals using a spectrophotometer such as Beckman DU-65 spectrophotometer (Fullteron, Calif.).
Hydrolysis of the chromogenic substrate, hipurryl arginine, was used to determine whether MoAbTAFI#16 inhibits active TAFI. […] The time course of hippuric acid formation at 22° C. was followed by monitoring absorbance at 254 nm and 0.5 minute intervals using a Beckman DU-65 spectrophotometer (Fullteron, Calif.). […]

[2] = tested on: clots formed from TAFI-deficient human plasma (TdP); assay: turbidometric tPA-induced lysis assay of clots formed from TAFI-deficient plasma (TdP); settings: every concentration studied; lysis time approximately 50 minutes
Experimental: (§1) Preparation of plasma for lysis assays. Pooled (3 to 4 donors) fresh frozen human plasma was purchased from Haematologic Technologies Inc. (Burlington, Vt.) and dialyzed against 4 L of 20 mmol/L HEPES, 150 mmol/L NaCl, pH 7.4 (HBS) at 4° C. with 4 changes overnight. The dialysate, termed normal human plasma (NHP), was stored at -70° C. in 2.0-mL aliquots. TAFI-deficient plasma (TdP) was produced by passing an aliquot, maximally 50 mL, of NHP over a 2.0-mL anti-TAFI affinity column (MoAbTAFI#16-Sepharose 4B) equilibrated in HBS. Depletion of TAFI was verified by Western blot analysis of a sample from each individual fraction. Only the flow-through fractions depleted of TAFI with an A280 equal to the NHP loaded onto the column were pooled and subsequently stored in 2.0 mL aliquots at -70° C. Pooled plasma samples were also subjected to Western blotting and TAFI concentrations were quantified by ELISA.
(§2) Lysis assay. […] After adding the plasma to the microtiter wells, the plate was transferred to a THERMOMAX microtiter plate reader (Molecular Devices). Temperature was maintained at 37° C. and the turbidity was monitored at 405 nm and 2.5-minute intervals. […]
(§3) 3. […] The TAFI-dependent profibrinolytic effect of each compound was evaluated by determination of lysis time of clots formed from both NHP and TdP in the presence of various concentrations of each inhibitor. […]

[3] = molecular target: T2, active TAFI (thrombin-activatable fibrinolysis inhibitor, plasma carboxypeptidase B) in clots formed from normal human plasma (Homo sapiens, UniProt Q96IY4); assay: turbidometric tPA-induced lysis assay of clots formed from normal human plasma (NHP); settings: tPA 294 pmol/L, 37° C., TAFI-dependent profibrinolytic effect, read-out: EC50 (shortening of lysis time)
T2 construct: tissue Haematologic Technologies Inc. (Burlington, Vt.); host or cells: pooled (3 to 4 donors) fresh frozen human plasma
T2 sequence (Q96IY4 115-423): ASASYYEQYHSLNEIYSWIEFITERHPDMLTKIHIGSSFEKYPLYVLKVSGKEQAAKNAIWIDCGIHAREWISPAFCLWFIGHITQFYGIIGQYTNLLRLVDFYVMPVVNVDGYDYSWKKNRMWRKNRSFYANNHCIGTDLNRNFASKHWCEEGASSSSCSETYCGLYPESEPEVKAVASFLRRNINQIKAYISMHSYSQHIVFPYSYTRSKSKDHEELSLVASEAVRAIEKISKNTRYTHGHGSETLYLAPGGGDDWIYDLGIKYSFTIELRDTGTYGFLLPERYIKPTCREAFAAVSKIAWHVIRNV
Experimental: as §1, §2, §3

N=C(N)NCCC[C@H](NC(=O)[C@@H]1CCCN1C(=O)[C@@H](N)Cc1ccccc1)C(=O)CCl [FPA-CK, Phe-Pro-Arg chloromethyl ketone]
active TAFI activity generated [1]: No active TAFI activity was generated

N=C(N)NCCSC(CC(=O)O)C(=O)O (stereo not drawn) [GEMSA, 2-Guanidinoethylmercaptosuccinic acid]
effect on lysis time of clots formed from TdP [2]: did not affect lysis time | EC50 [3]: 90 µM
